# Experimental data published in patent publication US6251853A, “PTX sensitive G proteins, the production and use thereof” (priority 1996, dated 2001).
# Key:
# PTX-sensitive G proteins = test: mastoparan 7-stimulated [35S]GTPγS binding to isolated cell membranes from normotensives and hypertensives; format: biochemical, human
# Protocol: (§1) A detailed characterization was carried out of the activation of G proteins from cells of normotensive subjects and hypertensive patients. For this purpose, the stimulated incorporation of radiolabeled [^35 S] GTPγS was quantified by the method described by Wieland et al. (Wieland, T., Liedel, K., Xaldenberg-Stasch, S., Meyer zu Heringdorf, D., Schmidt, M., and Jakobs, K. E. Analysis of receptor-G protein interactions in permeabilized cells. Naunyn-Schmiedeberg's Arch.Pharmacol. 351:329-336,1995). G Proteins were activated initially by stimulating cells which had been permeabilized with digitonin using the peptide mastoparan 7. This peptide simulates the configuration of an activated G protein-coupled receptor so that it can be used to induce direct G protein activation independent of receptors (Ross, E. M. and Higashijima, T. Regulation of G protein activation by mastoparan and other cationic peptides. Methods Enzymol. 237:27-38, 1994). The binding of GTPγS induced by MAS-7 is completely PTX-sensitive so that it can be used to quantify the activation of heterotrimeric G proteins of the Gi type. […] MAS-7 induces strong [^35 S] GTPγS binding on HT cells with an EC50 of about 5 μm (FIG. 2). Maximum binding is reached at about 25 to 50 μm MAS-7. In contrast to this, the concentration required for the same [^35 S] GTPγS binding to NT cells are [sic] 10 times higher (FIG. 2).
# GTPγS to isolated cell membranes from normotensives and hypertensives. It is evident that the maximum stimulated binding of [^35 S] GTPγS to membranes from hypertensives occurs at lower concentrations of GDP (about 0.2 μmol/l), where a concentration of 1 μmol/l GDP is required for the same effect in normotensives.
# In a similar way, the maximum binding, stimulated by mastoparan 7, of [^35 S] GTPγS to membrane preparations from hypertensive cells a low concentration of free Mg^2+ (about 0.01 mmol/l), while a free Mg^2+ concentration of 0.1 mmol/l is necessary for the same maximum binding of [^35 S] GTPγS to membranes from normotensive cells (FIG. 5).
# [1] = system: PTX-sensitive G proteins (heterotrimeric G proteins of the Gi type); test: mastoparan 7-stimulated [35S]GTPγS binding to digitonin-permeabilized cells from normotensives and hypertensives; format: cell-based, human
# Protocol: as §1
# GTPγS to cell lines from normotensives (NT) and hypertensives (HT).
# The binding of [^35 S] GTPγS to hypertensive cells is distinctly speeded up (rate constants 0.005 s^-1 in the normotensive versus 0.01 s^-1 in the hypertensive state).
molecule,measurement,setting,value
Nc1nc2c(ncn2[C@@H]2O[C@H](COP(=O)(O)OP(=O)(O)O)[C@@H](O)[C@H]2O)c(=O)[nH]1 [GDP],GDP concentration at which maximum mastoparan 7-stimulated [35S]GTPγS binding occurs,PTX-sensitive G proteins; membranes from hypertensives,about 0.2 μmol/l
same,GDP concentration required for maximum mastoparan 7-stimulated [35S]GTPγS binding,PTX-sensitive G proteins; membranes from normotensives,1 µmol/L
[Mg+2] [Mg^2+],free Mg2+ concentration for maximum mastoparan 7-stimulated [35S]GTPγS binding,PTX-sensitive G proteins; membrane preparations from hypertensive cells,about 0.01 mmol/l
same,free Mg2+ concentration for maximum mastoparan 7-stimulated [35S]GTPγS binding,PTX-sensitive G proteins; membranes from normotensive cells,0.1 mmol/L
mastoparan 7 [MAS-7],EC50,"[1]; HT (hypertensive) cells, digitonin-permeabilized, read-out: EC50 of induced [35S]GTPγS binding",~5 µM
same,"concentration required for the same [35S]GTPγS binding to NT cells, relative to HT cells",[1]; NT (normotensive) versus HT cells,10 times higher
same,rate constant of stimulated [35S]GTPγS binding,[1]; hypertensive state,0.01 s⁻¹
same,rate constant of stimulated [35S]GTPγS binding,[1]; normotensive state,0.005 s⁻¹
